{"source": "paper PMC7467771", "about": "“Lipophilic Arginine Esters: The Gateway to Preservatives without Side Effects” (Molecular Pharmaceutics, 2020)", "key": {"red blood cells": {"system": "red blood cells", "conditions": "cited from earlier work"}, "E. coli": {"system": "E. coli", "conditions": "against E. coli; cited from earlier work"}, "[1]": {"experiment": "octanol/water partition coefficient (log P) by TNBS assay", "format": "physicochemical", "conditions": "octanol/water mixture 1:1 v/v; mean, n = 3", "experimental": "Log P of Arg and both Arg-esters were determined using an already described method.[15] Each compound was dissolved in an octanol/water mixture (1:1, v/v). Afterward, octanol and water phases were separated by a high-speed mini centrifuge (Fisher Scientific, Illinois USA), and the concentration of each compound in each phase was determined by the TNBS assay. For this, a 50 μL volume from each phase was diluted 10 times with 0.1 M sodium bicarbonate (pH 8.5) containing 40% (v/v) isopropyl alcohol. After dilution, 250 μL of the TNBS reagent (0.01%, v/v) prepared in 0.1 M sodium bicarbonate (pH 8.5) was added to each sample that was incubated at 37 °C. After 2 h, the reaction was stopped by adding 250 μL of 10% (m/v) SDS and 125 μL of 1 M HCl. The absorbance of each sample was measured at 335 nm using a Spark multifunctional microplate reader (Tecan Austria, GmbH). The logarithm of the octanol/water absorbance ratio was expressed as log P for each sample."}, "Caco-2 cells": {"system": "Caco-2 cells", "experiment": "resazurin assay, cytotoxicity", "format": "cell-based", "conditions": "Caco-2, 4 h incubation; for EC50 (concentration causing 50% cell death): calculated from cell viability data", "experimental": "The resazurin assay was used to determine the cytotoxic potential of Arg-esters according to a previous method with some minor modifications.[15] Caco-2 cells were seeded in a 24-well cell culture plate at 25 000 cells per well density and kept in an incubator at 37 °C under a 95% relative humidity environment and 5% CO2 level. Minimum essential medium (MEM) supplemented with streptomycin (0.1 mg […]), penicillin (100 units […]), and fetal calf serum (FCS) 10% (v/v) was used for growing cells. During a growth period of 14 days, the medium was replaced every other day. On the day of the experiment, test solutions of Arg-OL and Arg-DT esters were prepared in 25 mM HBS (HEPES buffered saline) buffer (pH 7.4) in the concentration range of 1000–3000 μg mL^–1. For comparison, the same concentrations of BAC and cetrimide were also prepared in HBS. HBS without any addition was used as a positive control, and Triton X-100 (2%, v/v) in HBS was used as a negative control. The growth medium from all wells of the cell culture plate was removed, and cells were washed three times with HBS preheated at 37 °C. Each test solution and controls were then added to individual wells in a volume of 500 μL, and the cell culture plate was incubated under the same conditions. After 4 h, the solution from each well was removed, and cells were washed with HBS (pH 7.4) preheated at 37 °C. Then, 500 μL of resazurin (2.2 mM) per well was added and incubated for further 3 h under the same conditions. Afterward, the fluorescence of the supernatant from each well was measured at the excitation wavelength of 540 nm and an emission wavelength of 590 nm. Cell viability was calculated by the equation: [drawing 4]"}, "[2]": {"system": "Bacillus subtilis ATCC 6633", "experiment": "disk diffusion method", "format": "cell-based", "conditions": "test solution 10 mg mL^–1, disks about 6 mm, overnight 37 °C", "experimental": "(§1) Following bacterial strains were used for antimicrobial susceptibility testing: Escherichia coli ATCC 25922, Staphylococcus aureus ATCC 29213, Bacillus subtilis ATCC 6633, and Enterococcus faecalis ATCC 19433, which were obtained from the American Type Culture Collection (ATCC, Virginia, USA).\n(§2) The disk diffusion method was used for the initial assessment of the antimicrobial activity of Arg-esters. Mueller Hinton agar (MHA, Biomerieux) medium was prepared according to the manufacturer protocol and poured into Petri dishes. All testing microorganisms were dissolved in saline and set to a 0.5 McFarland standard turbidity. This corresponds to a bacterial concentration of 1.5 × 10^8 colony-forming units per milliliter (CFU mL^–1). The bacterial suspension was then swabbed over solidified MHA Petri dishes ensuring homogeneous distribution. The test solutions of Arg-OL, Arg-DT, BAC, and cetrimide were prepared in water with 10% (v/v) DMSO at a concentration of 10 mg mL^–1. Water with 10% (v/v) DMSO was used as a negative control. The diffusion disks of about 6 mm in diameter were prepared from Whatman filter paper. After immersing disks in the above-prepared test solutions, they were placed on MHA plates already swabbed with different bacteria. After overnight incubation of Petri dishes at 37 °C, clear zones of bacterial growth inhibition around disks were measured."}, "[3]": {"system": "Enterococcus faecalis ATCC 19433", "experiment": "disk diffusion method", "format": "cell-based", "conditions": "test solution 10 mg mL^–1, disks about 6 mm, overnight 37 °C", "experimental": "as §1, §2"}, "[4]": {"system": "Escherichia coli ATCC 25922", "experiment": "disk diffusion method", "format": "cell-based", "conditions": "test solution 10 mg mL^–1, disks about 6 mm, overnight 37 °C", "experimental": "as §1, §2"}, "[5]": {"system": "Staphylococcus aureus ATCC 29213", "experiment": "disk diffusion method", "format": "cell-based", "conditions": "test solution 10 mg mL^–1, disks about 6 mm, overnight 37 °C", "experimental": "as §1, §2"}, "[6]": {"system": "Bacillus subtilis ATCC 6633", "experiment": "MIC testing by the microdilution method", "format": "cell-based", "conditions": "microdilution, overnight 37 °C, tested 5000 to 5 μg mL^–1", "experimental": "as §1\n(§3) The MIC is the lowest concentration of a substance that leads to a clearly visible growth inhibition after a defined incubation period. To evaluate the MIC of Arg-DT, Arg-OL, BAC, and cetrimide, a microdilution test was performed according to the guidelines of the Clinical and Laboratory Standards Institute.[19] First of all, similarly, as for the disk diffusion test, microorganisms were dissolved in saline and set to a 0.5 McFarland standard turbidity. This corresponds to a bacterial concentration of 1.5 × 10^8 colony-forming units per milliliter (CFU mL^–1); 50 μL of the bacterial suspension was added to 10 mL of Mueller Hinton Bouillon (MHB, Becton Dickinson, New Jersey, USA). The stock solutions were prepared as follows: the test compounds Arg-OL, Arg-DT, BAC, and cetrimide were dissolved in water with 10% (v/v) DMSO at a concentration of 10 mg mL^–1. The obtained solutions were used to prepare serial dilutions. The tested concentration for each substance ranged from 5000 to 5 μg mL^–1. Each test sample was added to a flat-bottomed tissue plate well in the volume of 75 μL. The first well of the tissue plate containing 75 μL of water with 10% (v/v) DMSO instead of any test sample was used as a positive control. Finally, 75 μL of the bacterial suspension was added to each well, and the plates were incubated at 37 °C overnight.\n(§4) Before measuring the optical density (OD), plates were shaken for 15 min at 250 rpm. The OD was measured using the Bio-Rad 680 microplate reader (Hercules, California, USA) at a wavelength of 490 nm. Inhibition of bacterial growth was defined as a reduction of growth for at least 5 log units. Experiments were performed three times under analogous conditions for each bacterial strain and each tested sample."}, "[7]": {"system": "Enterococcus faecalis ATCC 19433", "experiment": "MIC testing by the microdilution method", "format": "cell-based", "conditions": "microdilution, overnight 37 °C, tested 5000 to 5 μg mL^–1", "experimental": "as §1, §3, §4"}, "[8]": {"system": "Escherichia coli ATCC 25922", "experiment": "MIC testing by the microdilution method", "format": "cell-based", "conditions": "microdilution, overnight 37 °C, tested 5000 to 5 μg mL^–1", "experimental": "as §1, §3, §4"}, "[9]": {"system": "Staphylococcus aureus ATCC 29213", "experiment": "MIC testing by the microdilution method", "format": "cell-based", "conditions": "microdilution, overnight 37 °C, tested 5000 to 5 μg mL^–1", "experimental": "as §1, §3, §4"}, "red blood cells (RBC)": {"system": "red blood cells (RBC)", "experiment": "hemolysis study", "format": "cell-based", "conditions": "human RBC, 1 h, 37 °C, PBS pH 7.4", "experimental": "The hemolysis test was performed with red blood cells (RBC) to evaluate the potential toxic effect of Arg-surfactants on human cells.[18] Human RBC concentrate was kindly donated by the Tirol Kliniken GmbH, Innsbruck, Austria, and stored at 4 °C until use. RBC concentrate (0.556 mL) was freshly diluted by adding sterile Dulbecco’s PBS (pH 7.4) (1.944 mL) before the test to obtain an equivalent amount of whole blood (EWB). Then EWB was 50 times diluted in sterile Dulbecco’s PBS (pH 7.4). The diluted blood on visual inspection was turbid and settled down upon leaving undisturbed, indicating no cell lysis. Arg-surfactant stock solutions were prepared in the concentration range of 10–5000 μg mL^–1 in PBS. For comparison, BAC and cetrimide solutions were prepared in the same concentration range in PBS. For the assay, 10 μL of each test sample was mixed with 190 μL of diluted blood, resulting in the testing final concentrations of 0.5–250 μg mL^–1. For the positive control, 10 μL of 20% v/v Triton X-100 and, for the negative control, 10 μL of sterile Dulbecco’s PBS were mixed with 190 μL of diluted blood. All samples and controls were incubated for 1 h at 37 °C with shaking. After centrifugation at 10 000 rpm for 60 s, aliquots of 100 μL were withdrawn from the supernatants and transferred to a 96-well plate. Absorbance was measured at a wavelength of 420 nm. The extent of hemolysis as a percentage was determined by using the following equation: [drawing 6]"}}, "note": "Where two headings read alike, the source gives them in different places."}
{"compound": "CCCCCC(=O)N[C@@H](CCCNC(=N)N)C(=O)OC", "note": "[CAM, caproyl arginine methyl ester]", "values": [{"measurement": "HC50", "setting": "red blood cells; reported in the literature", "value": 38.5, "unit": "μg mL^–1"}]}
{"compound": "CCCCCCCCCCCC(=O)N[C@@H](CCCNC(=N)N)C(=O)OC", "note": "[LAM, lauroyl arginine methyl ester]", "values": [{"measurement": "MIC", "setting": "E. coli", "value": 128, "unit": "μg mL^–1"}, {"measurement": "HC50", "setting": "red blood cells", "value": 20.8, "unit": "μg mL^–1"}]}
{"compound": "CCCCCCCC(=O)N[C@@H](CCCNC(=N)N)C(=O)OCC", "note": "[Nα-octanoyl arginine ethyl ester]", "values": [{"measurement": "MIC (not effective at the highest tested concentration)", "setting": "E. coli", "value": "> 256", "unit": "μg mL^–1"}]}
{"compound": "N=C(N)NCCC[C@H](N)C(=O)O", "note": "[arginine, L-Arginine]", "values": [{"measurement": "logP", "setting": "[1]", "value": -1.9}]}
{"compound": "benzalkonium chloride [BAC, reference compound]", "values": [{"measurement": "EC50 (concentration causing 50% cell death)", "setting": "Caco-2 cells", "value": 20, "unit": "μg mL^–1"}, {"measurement": "zones of inhibition", "setting": "[2]", "value": 23, "unit": "mm"}, {"measurement": "zones of inhibition", "setting": "[3]", "value": 20, "unit": "mm"}, {"measurement": "zones of inhibition", "setting": "[4]", "value": 19, "unit": "mm"}, {"measurement": "zones of inhibition", "setting": "[5]", "value": 21, "unit": "mm"}, {"measurement": "minimum inhibitory concentration", "setting": "[6]", "value": 5, "unit": "μg mL^–1"}, {"measurement": "minimum inhibitory concentration", "setting": "[7]", "value": 5, "unit": "μg mL^–1"}, {"measurement": "minimum inhibitory concentration", "setting": "[8]", "value": 10, "unit": "μg mL^–1"}, {"measurement": "minimum inhibitory concentration", "setting": "[9]", "value": 5, "unit": "μg mL^–1"}]}
{"compound": "cetrimide [reference compound]", "values": [{"measurement": "cell viability", "setting": "Caco-2 cells; all tested concentrations (1000–3000 μg mL^–1)", "value": "< 10", "unit": "%"}, {"measurement": "EC50 (concentration causing 50% cell death)", "setting": "Caco-2 cells", "value": 20, "unit": "μg mL^–1"}, {"measurement": "HC50 (concentration causing lysis of 50% red blood cells)", "setting": "red blood cells (RBC)", "value": 23, "unit": "μg mL^–1"}, {"measurement": "zones of inhibition", "setting": "[2]", "value": 19, "unit": "mm"}, {"measurement": "zones of inhibition", "setting": "[3]", "value": 19, "unit": "mm"}, {"measurement": "zones of inhibition", "setting": "[4]", "value": 12, "unit": "mm"}, {"measurement": "zones of inhibition", "setting": "[5]", "value": 19, "unit": "mm"}, {"measurement": "minimum inhibitory concentration", "setting": "[6]", "value": 5, "unit": "μg mL^–1"}, {"measurement": "minimum inhibitory concentration", "setting": "[7]", "value": 5, "unit": "μg mL^–1"}, {"measurement": "minimum inhibitory concentration", "setting": "[8]", "value": 20, "unit": "μg mL^–1"}, {"measurement": "minimum inhibitory concentration", "setting": "[9]", "value": 5, "unit": "μg mL^–1"}]}
